Source: patent US8440710B2, “HSL inhibitors useful in the treatment of diabetes” (Hoffmann-La Roche Inc., priority 2009, dated 2013)

Biological target: T1, human HSL (Homo sapiens, UniProt Q05469)
T1 construct: generate a full length human HSL ORF with a 3′-His6 tag; made in house; host or cells: High 5 insect cells (baculovirus, pFast-BAC)
T1 sequence (Q05469 1-1076): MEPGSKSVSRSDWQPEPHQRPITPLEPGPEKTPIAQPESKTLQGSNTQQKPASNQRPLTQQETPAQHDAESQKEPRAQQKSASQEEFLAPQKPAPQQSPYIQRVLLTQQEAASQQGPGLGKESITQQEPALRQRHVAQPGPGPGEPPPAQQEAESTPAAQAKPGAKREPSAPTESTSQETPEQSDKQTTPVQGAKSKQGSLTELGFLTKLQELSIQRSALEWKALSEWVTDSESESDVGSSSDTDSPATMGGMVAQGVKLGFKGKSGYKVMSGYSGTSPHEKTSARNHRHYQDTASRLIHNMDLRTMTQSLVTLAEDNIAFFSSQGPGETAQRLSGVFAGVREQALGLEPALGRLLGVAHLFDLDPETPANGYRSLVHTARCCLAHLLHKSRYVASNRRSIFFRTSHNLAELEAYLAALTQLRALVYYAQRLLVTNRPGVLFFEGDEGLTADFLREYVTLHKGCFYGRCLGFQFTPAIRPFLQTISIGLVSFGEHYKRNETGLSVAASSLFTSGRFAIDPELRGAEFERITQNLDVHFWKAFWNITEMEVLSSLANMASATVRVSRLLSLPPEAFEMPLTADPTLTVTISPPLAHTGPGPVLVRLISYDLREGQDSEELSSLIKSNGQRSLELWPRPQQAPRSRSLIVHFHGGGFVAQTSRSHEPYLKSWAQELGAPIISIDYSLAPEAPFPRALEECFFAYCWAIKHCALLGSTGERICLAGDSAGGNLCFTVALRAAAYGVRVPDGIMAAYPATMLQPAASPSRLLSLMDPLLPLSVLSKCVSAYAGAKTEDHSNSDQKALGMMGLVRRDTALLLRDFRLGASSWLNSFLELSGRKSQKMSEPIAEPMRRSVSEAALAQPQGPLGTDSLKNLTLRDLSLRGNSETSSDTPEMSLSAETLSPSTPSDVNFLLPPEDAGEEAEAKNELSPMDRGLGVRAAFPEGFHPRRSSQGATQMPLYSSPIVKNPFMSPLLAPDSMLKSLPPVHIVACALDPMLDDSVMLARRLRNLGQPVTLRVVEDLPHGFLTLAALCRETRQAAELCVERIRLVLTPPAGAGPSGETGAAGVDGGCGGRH
Assay: Human Hormone-Sensitive Lipase (HSL) enzyme inhibition assay (colorimetric, DMPT substrate)
Type: biochemical
Conditions: human full length HSL-His6, 2,3-dimercapto-1-propanol tributyrate substrate, 37° C. 20 minutes, absorbance at 405 nm; read-out: HSL hum IC50
Method in brief: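 Full-length human HSL with C-terminal His6, expressed in baculovirus-infected High 5 cells and Ni-NTA purified, was added (15 ug/ml stock) to 1.5 mM DMPT in 100 mM MOPS pH 7.2, 0.2 mg/ml fatty acid-free BSA containing compound. After 20 min at 37 °C, DTNB with SDS/Triton X-100 was added; A405 read after 15 min at RT.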

Row | Structure (SMILES) | IC50
1 | O=C1N(c2ccc(OC(F)(F)F)cc2)CC[C@]12CC[C@](O)(Cc1ccccc1)CC2 [Example 63, (5α,8β)-8-Benzyl-8-hydroxy-2-(4-trifluoromethoxy-phenyl)-2-aza-spiro[4.5]decan-1-one] | 600 nM
2 | C=CCC[C@]1(O)CC[C@]2(CCN(c3ccc(OC(F)(F)F)cc3)C2=O)CC1 [Example 64, (5α,8α)-8-But-3-enyl-8-hydroxy-2-(4-trifluoromethoxy-phenyl)-2-aza-spiro[4.5]decan-1-one] | 30 nM
3 | C=CCC[C@]1(O)CC[C@@]2(CCN(c3ccc(OC(F)(F)F)cc3)C2=O)CC1 [Example 65, (5α,8β)-8-But-3-enyl-8-hydroxy-2-(4-trifluoromethoxy-phenyl)-2-aza-spiro[4.5]decan-1-one] | 440 nM
4 | CCCC[C@]1(O)CC[C@]2(CCN(c3ccc(OC(F)(F)F)cc3)C2=O)CC1 [Example 66, (5α,8α)-8-Butyl-8-hydroxy-2-(4-trifluoromethoxy-phenyl)-2-aza-spiro[4.5]decan-1-one] | 30 nM
5 | CCCC[C@]1(O)CC[C@@]2(CCN(c3ccc(OC(F)(F)F)cc3)C2=O)CC1 [Example 67, (5α,8β)-8-Butyl-8-hydroxy-2-(4-trifluoromethoxy-phenyl)-2-aza-spiro[4.5]decan-1-one] | 11100 nM
6 | CC(C)[C@]1(O)CC[C@]2(CCN(c3ccc(OC(F)(F)F)cc3)C2=O)CC1 [Example 68, (5α,8α)-8-Hydroxy-8-isopropyl-2-(4-trifluoromethoxy-phenyl)-2-aza-spiro[4.5]decan-1-one] | 30 nM
7 | CC(C)[C@]1(O)CC[C@@]2(CCN(c3ccc(OC(F)(F)F)cc3)C2=O)CC1 [Example 69, (5α,8β)-8-Hydroxy-8-isopropyl-2-(4-trifluoromethoxy-phenyl)-2-aza-spiro[4.5]decan-1-one] | 560 nM
8 | O=C1N(c2ccc(OC(F)(F)F)cc2)CC[C@]12CC[C@@](O)(C1CC1)CC2 [Example 70, (5α,8α)-8-Cyclopropyl-8-hydroxy-2-(4-trifluoromethoxy-phenyl)-2-aza-spiro[4.5]decan-1-one] | 130 nM
9 | COCC#C[C@]1(O)CC[C@]2(CCN(c3ccc(OC(F)(F)F)cc3)C2=O)CC1 [Example 71, (5α,8α)-8-Hydroxy-8-(3-methoxy-prop-1-ynyl)-2-(4-trifluoromethoxy-phenyl)-2-aza-spiro[4.5]decan-1-one] | 40 nM
10 | COCC#C[C@]1(O)CC[C@@]2(CCN(c3ccc(OC(F)(F)F)cc3)C2=O)CC1 [Example 72, (5α,8β)-8-Hydroxy-8-(3-methoxy-prop-1-ynyl)-2-(4-trifluoromethoxy-phenyl)-2-aza-spiro[4.5]decan-1-one] | 710 nM
11 | C[C@]1(O)CC[C@]2(CCN(c3ccc(C4CC4)cc3)C2=O)CC1 [Example 73, (5α,8α)-2-(4-Cyclopropyl-phenyl)-8-hydroxy-8-methyl-2-aza-spiro[4.5]decan-1-one] | 150 nM
12 | C[C@]1(O)CC[C@@]2(CCN(c3ccc(C4CC4)cc3)C2=O)CC1 [Example 74, (5α,8β)-2-(4-Cyclopropyl-phenyl)-8-hydroxy-8-methyl-2-aza-spiro[4.5]decan-1-one] | 800 nM
13 | CCC[C@]1(O)CC[C@]2(CCN(c3ccc(C4CC4)cc3)C2=O)CC1 [Example 75, (5α,8α)-2-(4-Cyclopropyl-phenyl)-8-hydroxy-8-propyl-2-aza-spiro[4.5]decan-1-one] | 30 nM
14 | CCC[C@]1(O)CC[C@@]2(CCN(c3ccc(C4CC4)cc3)C2=O)CC1 [Example 76, (5α,8β)-2-(4-Cyclopropyl-phenyl)-8-hydroxy-8-propyl-2-aza-spiro[4.5]decan-1-one] | 190 nM
15 | C[C@]1(O)CC[C@]2(CCN(c3ccc(CC(F)(F)F)cc3)C2=O)CC1 [Example 77, (5α,8α)-8-Hydroxy-8-methyl-2-[4-(2,2,2-trifluoro-ethyl)-phenyl]-2-aza-spiro[4.5]decan-1-one] | 50 nM
16 | C[C@]1(O)CC[C@@]2(CCN(c3ccc(CC(F)(F)F)cc3)C2=O)CC1 [Example 78, (5α,8β)-8-Hydroxy-8-methyl-2-[4-(2,2,2-trifluoro-ethyl)-phenyl]-2-aza-spiro[4.5]decan-1-one] | 900 nM
17 | CC[C@]1(O)CC[C@]2(CCN(c3ccc(CC(F)(F)F)cc3)C2=O)CC1 [Example 79, (5α,8α)-8-Ethyl-8-hydroxy-2-[4-(2,2,2-trifluoro-ethyl)-phenyl]-2-aza-spiro[4.5]decan-1-one] | 30 nM
18 | CC[C@]1(O)CC[C@@]2(CCN(c3ccc(CC(F)(F)F)cc3)C2=O)CC1 [Example 80, (5α,8β)-8-Ethyl-8-hydroxy-2-[4-(2,2,2-trifluoro-ethyl)-phenyl]-2-aza-spiro[4.5]decan-1-one] | 910 nM
19 | CCC[C@]1(O)CC[C@]2(CCN(c3ccc(CC(F)(F)F)cc3)C2=O)CC1 [Example 81, (5α,8α)-8-Hydroxy-8-propyl-2-[4-(2,2,2-trifluoro-ethyl)-phenyl]-2-aza-spiro[4.5]decan-1-one] | 20 nM
20 | CCC[C@]1(O)CC[C@@]2(CCN(c3ccc(CC(F)(F)F)cc3)C2=O)CC1 [Example 82, (5α,8β)-8-Hydroxy-8-propyl-2-[4-(2,2,2-trifluoro-ethyl)-phenyl]-2-aza-spiro[4.5]decan-1-one] | 460 nM
21 | CCCc1ccc(N2CC[C@]3(CC[C@@](O)(CC)CC3)C2=O)cc1 [Example 83, (5α,8α)-8-Ethyl-8-hydroxy-2-(4-propyl-phenyl)-2-aza-spiro[4.5]decan-1-one] | 70 nM
22 | CCCc1ccc(N2CC[C@]3(CC[C@](O)(CC)CC3)C2=O)cc1 [Example 84, (5α,8β)-8-Ethyl-8-hydroxy-2-(4-propyl-phenyl)-2-aza-spiro[4.5]decan-1-one] | 4300 nM
23 | O=C1N(c2ccc(OCC(F)(F)F)cc2)CC[C@]12CC[C@@H](O)CC2 [Example 85, (5α,8β)-8-Hydroxy-2-[4-(2,2,2-trifluoro-ethoxy)-phenyl]-2-aza-spiro[4.5]decan-1-one] | 2290 nM
24 | C[C@]1(O)CC[C@]2(CCN(c3ccc(OCC(F)(F)F)cc3)C2=O)CC1 [Example 86, (5α,8α)-8-Hydroxy-8-methyl-2-[4-(2,2,2-trifluoro-ethoxy)-phenyl]-2-aza-spiro[4.5]decan-1-one] | 130 nM
25 | C[C@]1(O)CC[C@@]2(CCN(c3ccc(OCC(F)(F)F)cc3)C2=O)CC1 [Example 87, (5α,8β)-8-Hydroxy-8-methyl-2-[4-(2,2,2-trifluoro-ethoxy)-phenyl]-2-aza-spiro[4.5]decan-1-one] | 3820 nM
26 | CC[C@]1(O)CC[C@]2(CCN(c3ccc(OCC(F)(F)F)cc3)C2=O)CC1 [Example 88, (5α,8α)-8-Ethyl-8-hydroxy-2-[4-(2,2,2-trifluoro-ethoxy)-phenyl]-2-aza-spiro[4.5]decan-1-one] | 42 nM
27 | CC[C@]1(O)CC[C@@]2(CCN(c3ccc(OCC(F)(F)F)cc3)C2=O)CC1 [Example 89, (5α,8β)-8-Ethyl-8-hydroxy-2-[4-(2,2,2-trifluoro-ethoxy)-phenyl]-2-aza-spiro[4.5]decan-1-one] | 3190 nM
28 | COCCC[C@]1(O)CC[C@]2(CCN(c3ccc(OC(F)(F)F)cc3)C2=O)CC1 [Example 90, (5α,8α)-8-Hydroxy-8-(3-methoxy-propyl)-2-(4-trifluoromethoxy-phenyl)-2-aza-spiro[4.5]decan-1-one] | 23 nM
29 | COCCC[C@]1(O)CC[C@@]2(CCN(c3ccc(OC(F)(F)F)cc3)C2=O)CC1 [Example 91, (5α,8β)-8-Hydroxy-8-(3-methoxy-propyl)-2-(4-trifluoromethoxy-phenyl)-2-aza-spiro[4.5]decan-1-one] | 896 nM
